Columns and labels:
[1] = test system: KDM5A-overexpressed breast cancer cells, MCF7; experiment: Growth inhibitory activity on KDM5A-overexpressed cell lines (MCF7), single concentration; type: cell-based; details: Homo sapiens; MCF7, single concentration 10 μM; read-out: Growth inhibitory activity at 10 μM (inhibition proportion %)
Protocol: The compound of the present invention was treated at a single concentration with KDM5A-overexpressed breast cancer cells, MCF7, and growth inhibitory activity was measured as an inhibition proportion (%).

[2] = test system: A549 lung cancer cell line; experiment: Inhibitory activity on cancer cell proliferation, A549; type: cell-based; details: Homo sapiens
Protocol: (§1) The following test was conducted to identify whether the compound of the present invention has inhibitory activity on cancer cell proliferation.
(§2) The cancer cells herein used were lung cancer cell lines (NCI-H1299, A549) and breast cancer cell lines (MDA-MB-231).
(§3) Specifically, the NCI-H1299 cells were large cell lung carcinoma cell lines derived from human lung cancer tissues, and the MDA-MB231 cells were cell lines derived from human breast cancer tissues and obtained from the Korean cell line bank (KNCC, Seoul university), which were used for tests after passage culture. The NCI-H1299 and MDA-MB231 cell lines were cultured in a RPMI1640 medium supplemented with 10% FBS (fetal bovine serum), and were washed with buffered saline (PBS, pH 7.4), when the cells were proliferated on a plate at an affluence of 70 to 80%, and isolated into single cells using a 0.05% trypsin-EDTA (welgene) solution, and then passage-cultured at 1×10e6 cells/mL which were used for the test. […] After 72 hours, absorbance was measured using a CellTiter-Glo® Luminescent Cell Viability Assay (Promega) and an Envision 2103 multilabel reader (PerkinElmer). At this time, cells treated only with dimethylsulfoxide (DMSO) were used as the control group and relative viability (%) was calculated, based on 100% of the control group. […]

[3] = test system: MDA-MB-231 breast cancer cell line; experiment: Inhibitory activity on cancer cell proliferation, MDA-MB-231 (CellTiter-Glo, 72 hours); type: cell-based; details: Homo sapiens; MDA-MB-231, 72 hours
Protocol: as §1, §2
Specifically, the NCI-H1299 cells were large cell lung carcinoma cell lines derived from human lung cancer tissues, and the MDA-MB231 cells were cell lines derived from human breast cancer tissues and obtained from the Korean cell line bank (KNCC, Seoul university), which were used for tests after passage culture. The NCI-H1299 and MDA-MB231 cell lines were cultured in a RPMI1640 medium supplemented with 10% FBS (fetal bovine serum), and were washed with buffered saline (PBS, pH 7.4), when the cells were proliferated on a plate at an affluence of 70 to 80%, and isolated into single cells using a 0.05% trypsin-EDTA (welgene) solution, and then passage-cultured at 1×10e6 cells/mL which were used for the test. 100 μL of NCI-H1299 and 100 μL of MDA-MB231 were seeded on a 96-well plate at 2×10e4 cells/mL, and 5×10e4 cells/mL, respectively, stabilized in the presence of CO2 for 12 hours or longer, and then treated at different concentrations with the subject compound. After 72 hours, absorbance was measured using a CellTiter-Glo® Luminescent Cell Viability Assay (Promega) and an Envision 2103 multilabel reader (PerkinElmer). At this time, cells treated only with dimethylsulfoxide (DMSO) were used as the control group and relative viability (%) was calculated, based on 100% of the control group. GI50 was obtained using Graph PRISM 6 software.

[4] = test system: NCI-H1299 cells; experiment: Inhibitory activity on cancer cell proliferation, NCI-H1299 (CellTiter-Glo, 72 hours); type: cell-based; details: Homo sapiens; NCI-H1299, 72 hours
Protocol: as §1, §2, §3

[5] = target: KDM5A (lysine demethylase 5A) (Homo sapiens, UniProt P29375); experiment: Inhibitory activity against histone demethylase (in vitro IC50); type: biochemical
Protocol: Inhibitory activity against histone demethylase of the compound of the present invention was evaluated.

Chain of KDM5A (lysine demethylase 5A) (P29375 whole entry, species assumed): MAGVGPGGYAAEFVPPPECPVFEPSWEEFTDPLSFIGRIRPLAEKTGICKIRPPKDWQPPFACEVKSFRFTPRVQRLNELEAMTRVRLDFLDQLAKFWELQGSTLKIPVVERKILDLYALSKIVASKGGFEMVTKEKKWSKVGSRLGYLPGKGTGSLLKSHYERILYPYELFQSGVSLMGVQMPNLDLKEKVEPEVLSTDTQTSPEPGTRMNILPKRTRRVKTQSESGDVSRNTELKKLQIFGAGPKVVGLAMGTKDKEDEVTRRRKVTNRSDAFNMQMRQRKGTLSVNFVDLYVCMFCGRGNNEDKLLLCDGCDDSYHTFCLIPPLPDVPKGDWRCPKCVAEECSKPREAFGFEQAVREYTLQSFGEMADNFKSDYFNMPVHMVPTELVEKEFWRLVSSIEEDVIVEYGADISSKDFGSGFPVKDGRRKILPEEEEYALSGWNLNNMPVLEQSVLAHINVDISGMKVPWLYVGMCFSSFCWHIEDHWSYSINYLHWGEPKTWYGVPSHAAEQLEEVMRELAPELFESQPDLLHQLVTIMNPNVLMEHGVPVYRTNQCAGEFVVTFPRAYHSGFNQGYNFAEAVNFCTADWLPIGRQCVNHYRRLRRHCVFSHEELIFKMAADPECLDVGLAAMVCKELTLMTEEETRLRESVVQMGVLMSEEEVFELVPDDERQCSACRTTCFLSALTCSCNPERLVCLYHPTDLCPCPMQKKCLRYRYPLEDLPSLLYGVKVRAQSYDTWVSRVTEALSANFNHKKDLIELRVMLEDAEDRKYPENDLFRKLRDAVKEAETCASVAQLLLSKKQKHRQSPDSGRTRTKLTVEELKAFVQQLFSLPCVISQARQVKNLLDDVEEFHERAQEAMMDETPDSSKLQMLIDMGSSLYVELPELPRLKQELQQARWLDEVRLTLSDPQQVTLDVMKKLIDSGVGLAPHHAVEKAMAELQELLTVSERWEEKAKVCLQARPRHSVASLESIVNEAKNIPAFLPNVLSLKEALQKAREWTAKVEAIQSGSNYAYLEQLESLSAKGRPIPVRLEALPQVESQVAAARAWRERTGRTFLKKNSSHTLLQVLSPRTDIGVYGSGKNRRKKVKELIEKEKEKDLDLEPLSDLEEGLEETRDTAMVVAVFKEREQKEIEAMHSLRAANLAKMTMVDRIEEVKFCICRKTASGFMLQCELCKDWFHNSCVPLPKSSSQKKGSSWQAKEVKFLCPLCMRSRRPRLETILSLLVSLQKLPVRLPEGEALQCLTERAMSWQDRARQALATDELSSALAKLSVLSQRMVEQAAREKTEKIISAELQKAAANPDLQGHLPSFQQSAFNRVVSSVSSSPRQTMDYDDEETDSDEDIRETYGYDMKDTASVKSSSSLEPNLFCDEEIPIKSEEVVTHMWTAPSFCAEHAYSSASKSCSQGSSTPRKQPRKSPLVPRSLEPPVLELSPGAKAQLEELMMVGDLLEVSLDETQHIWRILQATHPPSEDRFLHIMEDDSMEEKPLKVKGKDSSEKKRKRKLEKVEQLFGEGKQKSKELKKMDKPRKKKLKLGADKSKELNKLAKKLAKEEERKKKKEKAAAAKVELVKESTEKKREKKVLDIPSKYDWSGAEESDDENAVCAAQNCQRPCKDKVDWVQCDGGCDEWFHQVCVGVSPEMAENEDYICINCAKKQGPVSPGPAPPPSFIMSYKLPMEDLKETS

GI50 [3] [µM] | Structure (SMILES) | further results
– | O=C(O)c1ncncc1NCc1ccc(-c2ccccc2)cc1 [Example 1, 5-(([1,1′-biphenyl]-4-ylmethyl)amino)pyrimidine-4-carboxylic Acid] | inhibition at 10 µM [1]: 40 to 80%
10 to 100 | O=C(O)c1ncncc1NCc1ccc(Cl)c(Cl)c1 [Example 3, 5-((3,4-dichlorobenzyl)amino)pyrimidine-4-carboxylic Acid] | GI50 [2]: 10 to 100 µM
10 to 100 | O=C(O)c1ncncc1NCc1ccc(F)cc1 [Example 6, 5-((4-fluorobenzyl)amino)pyrimidine-4-carboxylic Acid] | –
10 to 100 | O=C(O)c1ncncc1NCc1cc(C(F)(F)F)cc(C(F)(F)F)c1 [Example 7, 5-((3,5-bis(trifluoromethyl)benzyl)amino)pyrimidine-4-carboxylic Acid] | –
10 to 100 | Cc1ccc(CNc2cncnc2C(=O)O)cc1 [Example 9, 5-((4-methylbenzyl)amino)pyrimidine-4-carboxylic Acid] | –
– | O=C(O)c1ncncc1NCc1cccc(F)c1 [Example 10, 5-((3-fluorobenzyl)amino)pyrimidine-4-carboxylic Acid] | GI50 [4]: < 10 µM
10 to 100 | CCCn1nc(Nc2cncnc2C(=O)O)c2ccccc21 [Example 12, 5-((1-propyl-1H-indazol-3-yl)amino)pyrimidine-4-carboxylic Acid] | GI50 [2]: 10 to 100 µM; IC50 [5]: < 3 µM

Reference: patent publication US10494346B2, “Substituted pyrimidine-4-carboxylic acids having anticancer activity” (KOREA INSTITUTE OF SCIENCE AND TECHNOLOGY, priority 2016, dated 2019)
